# Measurements from patent US9738902B2, “Modified PYR/PYL receptors activated by ligands” (priority 2013, dated 2017).
# Key:
# [1] = test system: wild type; assay: qRT-PCR of ABA-regulated genes RD29B and RAB18; assay type: in vivo, Arabidopsis; conditions: 2 μM mandipropamid, 8 hours
# Experimental: (§1) One of ABA's major effects is to regulate gene expression. We therefore examined the effects of ABA and mandipropamid on gene expression in wild type, PYR-OX, MDP1 and MPD2 transgenic plants. Seed of the wild type or transgenic lines were surface sterilized, stratified for 4 days at 4° C. and then grown for 10 days at room temperature under continuous illumination in a liquid culture consisting of 0.5×MS salts and 0.5% sucrose and grown with continuous shaking to provide aeration. After 10 days, the culture solutions were adjusted to contain 50 μM ABA, 2 μM mandipropamid, or a mock treatment. After 8 hours exposure to the test compounds RNA was isolated using RNAEasy™ Plant RNA isolation kit (Qiagen, USA) and treated with DNAse. The purified RNA was utilized in qRT-PCR reactions using primers for the ABA-regulated genes RD29B or RAB18. Biological triplicate and triple technical replicate measurements were conducted. To perform qRT-PCR analyses, cDNA was generated from 5 μg of total RNA using superscript reverse transcriptase III (Invitrogen, USA), in reaction mixture containing a oligo-dT20 (SEQ ID NO:110) and a ribosomal RNA primer. Real-time quantitative PCR analysis was performed by ΔCt method of relative quantification. PCR mixtures contained cDNA, Maxima® SYBR green/Fluorescein qPCR master mix (Fermentas, USA) and 330 nM of each gene-specific primer. RT-PCRs were conducted using a BioRad CFX96 Real-Time PCR System and the data were processed using the BioRad CFX Manager software (BioRad, USA). PCRs were performed under the following cycling conditions: 3 min at 95° C., followed by 40 cycles of 10 sec at 95° C., 10 sec at 55° C. and 30 sec at 72° C. in 96-well optical reaction plates (BioRad, USA). The specificity of amplicons was verified by melting curve (disassociation) analysis (60-95° C.) after 40 cycles. Input cDNA was normalized using an internal control gene, PEX4 (AT5G25760).
# [2] = test system: PYR1-OX; assay: qRT-PCR of ABA-regulated genes RD29B and RAB18; assay type: in vivo, Arabidopsis; conditions: 2 μM mandipropamid, 8 hours
# Experimental: as §1
# [3] = test system: MDP1 and MDP2 transgenic plants; assay: qRT-PCR of ABA-regulated genes RD29B and RAB18; assay type: in vivo, Arabidopsis; conditions: MDP1 and MDP2, 2 μM mandipropamid, 8 hours
# Experimental: as §1
# [4] = target: T1, GST-HAB1 in the presence of PYR1^K59R,F108A,S122G (Arabidopsis thaliana, UniProt O49686, F108A/K59R/S122G); assay: PP2C activity assay (pNPP); assay type: biochemical; conditions: PYR1^K59R,F108A,S122G 1200 nM, PP2C 600 nM
# T1 construct: 6x-His; made in house; host or cells: E. coli BL21[DE3]pLysS (receptor)
# From the text: (§2) One possibility in any functional screen conducted in a heterologous organism such as S. cerevisiae is that mutants identified may only work in the context of the heterologous expression system. We therefore examined whether recombinant PYR1^K59R,F108A,S122G and PYR1^MANDI proteins inhibit PP2C activity in vitro, as is well documented for wild type PYR1 in response to ABA (Park et al., 2009). Both receptors were cloned into pET28 to generate 6×-His (SEQ ID NO:109) tagged receptors. These were expressed in BL21[DE3]pLysS E. coli host cells at 18° C. overnight. 6×-His-fusion proteins were purified from sonicated lysates using Ni-NTA agarose (Qiagen, USA), according to the manufacturer's instructions. For PP2C assays, recombinant GST-HAB1 and GST-ABI2 were expressed and purified as described previously (Park et al., 2009) and PP2C activity assayed conducted using the colorimetric phosphatase substrate para-nitrophenyl phosphate (pNPP) as previously described (Park et al., 2009). PP2C assays were conducted using 600 nM of PP2C and 1200 nM recombinant receptors. […] We note that these mutant receptors cannot respond to ABA due to the K59R mutation they contain, which abolishes ABA responsiveness.
# [5] = target: T2, GST-ABI2 in the presence of PYR1^K59R,F108A,S122G (Arabidopsis thaliana, UniProt O49686, F108A/K59R/S122G); assay: PP2C activity assay (pNPP); assay type: biochemical; conditions: PYR1^K59R,F108A,S122G 1200 nM, PP2C 600 nM
# T2 construct: 6x-His; made in house; host or cells: E. coli BL21[DE3]pLysS (receptor)
# From the text: as §2
# [6] = target: T3, GST-HAB1 in the presence of PYR1^MANDI (Arabidopsis thaliana, UniProt O49686, F108A/F159L/K59R/S122G/V81I/Y58H); assay: PP2C activity assay (pNPP); assay type: biochemical; conditions: PYR1^MANDI 1200 nM, PP2C 600 nM
# T3 construct: 6×-His (N); made in house; host or cells: BL21[DE3]pLysS E. coli (receptor)
# From the text: as §2
# [7] = target: T4, GST-ABI2 in the presence of PYR1^MANDI (Arabidopsis thaliana, UniProt O49686, F108A/F159L/K59R/S122G/V81I/Y58H); assay: PP2C activity assay (pNPP); assay type: biochemical; conditions: PYR1^MANDI 1200 nM, PP2C 600 nM
# T4 construct: 6×-His (N); made in house; host or cells: BL21[DE3]pLysS E. coli (receptor)
# From the text: as §2
# T1 sequence (O49686 whole entry K59R/F108A/S122G): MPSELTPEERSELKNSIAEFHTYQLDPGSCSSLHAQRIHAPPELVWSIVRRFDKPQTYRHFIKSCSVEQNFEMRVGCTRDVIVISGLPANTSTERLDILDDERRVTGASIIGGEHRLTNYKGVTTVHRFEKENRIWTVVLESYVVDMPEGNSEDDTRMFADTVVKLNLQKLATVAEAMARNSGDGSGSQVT
# T1 sequence (Q9CAJ0 23-511 partner): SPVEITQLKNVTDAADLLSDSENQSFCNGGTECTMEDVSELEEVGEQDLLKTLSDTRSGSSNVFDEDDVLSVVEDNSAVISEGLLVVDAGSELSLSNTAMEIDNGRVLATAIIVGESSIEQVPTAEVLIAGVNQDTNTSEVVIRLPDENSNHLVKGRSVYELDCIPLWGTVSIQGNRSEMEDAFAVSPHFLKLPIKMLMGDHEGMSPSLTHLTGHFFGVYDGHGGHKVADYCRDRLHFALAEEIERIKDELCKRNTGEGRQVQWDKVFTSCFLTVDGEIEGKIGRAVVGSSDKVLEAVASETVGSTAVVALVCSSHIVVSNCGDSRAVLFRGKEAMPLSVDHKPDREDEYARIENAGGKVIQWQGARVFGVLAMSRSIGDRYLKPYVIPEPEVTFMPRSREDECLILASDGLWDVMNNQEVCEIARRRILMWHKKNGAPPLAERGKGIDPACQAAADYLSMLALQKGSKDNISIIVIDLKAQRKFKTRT
# T2 sequence (O49686 whole entry K59R/F108A/S122G): as the sequence (O49686 whole entry K59R/F108A/S122G) above
# T2 sequence (O04719 whole entry partner): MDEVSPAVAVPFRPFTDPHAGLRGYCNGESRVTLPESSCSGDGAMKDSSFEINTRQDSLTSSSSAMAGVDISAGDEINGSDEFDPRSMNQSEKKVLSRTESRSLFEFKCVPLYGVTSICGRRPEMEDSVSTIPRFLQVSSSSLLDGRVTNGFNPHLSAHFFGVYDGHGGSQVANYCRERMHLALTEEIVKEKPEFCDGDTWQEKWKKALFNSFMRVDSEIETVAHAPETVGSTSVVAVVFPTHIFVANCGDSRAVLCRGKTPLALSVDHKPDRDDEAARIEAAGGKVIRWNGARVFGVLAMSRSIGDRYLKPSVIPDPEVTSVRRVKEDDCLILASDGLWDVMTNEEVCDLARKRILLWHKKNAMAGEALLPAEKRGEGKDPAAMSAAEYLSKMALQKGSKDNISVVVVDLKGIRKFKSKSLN
# T4 sequence (O49686 whole entry Y58H/K59R/V81I/F108A/S122G/F159L): as the sequence (O49686 whole entry K59R/F108A/S122G) above, with Y58H, V81I, F159L counted along it
# T4 sequence (O04719 whole entry partner): as the sequence (O04719 whole entry partner) above
# T3 sequence (O49686 whole entry Y58H/K59R/V81I/F108A/S122G/F159L): as the sequence (O49686 whole entry K59R/F108A/S122G) above, with Y58H, V81I, F159L counted along it
# T3 sequence (Q9CAJ0 23-511 partner): as the sequence (Q9CAJ0 23-511 partner) above
structure (smiles),measurement,setting,value
"C#CCOc1ccc(CCNC(=O)C(OCC#C)c2ccc(Cl)cc2)cc1OC (stereo not shown) [Mandipropamid, mandipropamid]",transcription of RD29B and RAB18,[1],does not do so
same,transcription of RD29B and RAB18,[2],does not do so
same,transcription of RD29B and RAB18,[3],high-level transcription
same,inhibition of HAB1 PP2C activity,[4],saturable inhibition
same,inhibition of ABI2 PP2C activity,[5],saturable inhibition
same,inhibition of HAB1 PP2C activity,[6],saturable inhibition
same,inhibition of ABI2 PP2C activity,[7],saturable inhibition
